The conditions of series [1]: cited from earlier work; for duration of pesticide activity: on forming complexes with cyclodextrin.
The conditions of series [2]: cited from earlier work; for volatility of the active ingredient: on forming complexes with cyclodextrin.
The conditions of series [3]: cited from earlier work.
The next series has as its system test fungi. Description: Fungicidal activity of metomeclan with cyclodextrin, general statement. Format: cell-based. As to the method: The following tests substantiate the surprising synergism between known fungicides and β-cyclodextrin. Stable, highly dispersed aqueous suspensions of the test materials are added to agar nutrient media in the desired concentration (0.1-200 μg/ml), whereupon the nutrient media are poured into Petri-dishes. Mycelium discs are cut out from the surfacial cultures of the test fungi and the discs are placed into the Petri-dishes containing the test materials. Incubation is carried out in thermostate whereupon the increase of the diameter of the colonies is measured and compared to that of the control. The tests are carried out in three replicates.

For the next series, the system named is wheat powdery mildew. Description: In vivo test on wheat-powdery mildew (host-parasite). How it is done: In vivo tests are carried out on wheat-powdery mildew (host-parasite) by using a combination of phenarimol [2,4'-dichloro-α--(pyrimidine-5-yl)-diphenyl-ethanol] and β-cyclodextrin. The tests are carried out in three replicates in phytotrone under usual experimental system and environmental conditions (20° C., humidity 90%, light intensity 9000 lux.) In culturing dishes (diameter 11 cm) as average 160 plants (5-6 cm stage) are treated with 8 ml of stable aqueous suspensions comprising the test material. The inhibition activity is calculated on the basis of the Hinfner-Papp formula by using the infectedness index.

Series [4] can be described thus: Solubility of benomyl under the effect of β-cyclodextrin (shaking in water, UV). Format: physicochemical. As to conditions: water 25° C.; for solubility thermodynamic at 10 min / solubility thermodynamic at 20 min / solubility thermodynamic at 40 min / solubility thermodynamic at 80 min / solubility thermodynamic at 2 h: water, read-out: Amount of dissolved benomyl. As to the method:
(Benomyl and benomyl+β-cyclodextrin, respectively, are shaken in water at 25° C., the samples are filtered and the dissolved benomyl contents of the filtrates are determined by UV spectrophotometry).

Series [5] can be described thus: Solubility of benomyl from various materials incl. Fundazol under the effect of β-cyclodextrin. Type of series: physicochemical. As to the method: Benomyl is put on the market under the commercial name Fundazol 50 WP; benomyl active ingredient content: 50%. In Table 3 the solubility data of benomyl, a mixture of benomyl and cyclodextrin, Fundazol 50 WP, and a mixture of Fundazol 50 WP and cyclodextrin are shown. In each experiment […] of the test substance are weighed in and shaken at 25° C. Benomyl is a 100% active ingredient; the benomyl content of the benomyl/cyclodextrin mixture amounts to 17.3%; the benomyl content of Fundazol 50 WP is 50%; the benomyl content of the mixture of Fundazol 50 WP and cyclodextrin amounts to 8.65%.
2000 μg/ml of solid material are weighed in which corresponds to the following amounts of benomyl:
in the case of benomyl: 2000 μg/ml
in the case of benomyl+β-CD: 350 μg/ml++1650 μg β-CD
in the case of Fundazol 50 WP: 1000 μg/ml
in the case of Fundazol 50 WP+β-CD: 175 μg/ml++1650 μg β-CD.

Where [6] appears, read: 10 minutes, weighed in 1000 μg/ml benomyl, or 170 μg benomyl + 830 μg/ml β-CD.
Setting [7] is: 10 minutes, weighed in 5000 μg/ml benomyl, or 850 μg benomyl + 4150 μg/ml β-CD.
Where [8] appears, read: 20 minutes, weighed in 1000 μg/ml benomyl, or 170 μg benomyl + 830 μg/ml β-CD.
Where [9] appears, read: 20 minutes, weighed in 5000 μg/ml benomyl, or 850 μg benomyl + 4150 μg/ml β-CD.
Where [10] appears, read: 40 minutes, weighed in 1000 μg/ml benomyl, or 170 μg benomyl + 830 μg/ml β-CD.
Setting [11] is: 40 minutes, weighed in 5000 μg/ml benomyl, or 850 μg benomyl + 4150 μg/ml β-CD.
Setting [12] is: 80 minutes, weighed in 1000 μg/ml benomyl, or 170 μg benomyl + 830 μg/ml β-CD.
The mark [13] stands for this setting: 80 minutes, weighed in 5000 μg/ml benomyl, or 850 μg benomyl + 4150 μg/ml β-CD.
[14] abbreviates: 120 minutes, weighed in 1000 μg/ml benomyl, or 170 μg benomyl + 830 μg/ml β-CD.
Where [15] appears, read: 120 minutes, weighed in 5000 μg/ml benomyl, or 850 μg benomyl + 4150 μg/ml β-CD.

Converted amounts (≈) assume the structure as drawn.

As for `O=P(O)(O)CCCl`, the “ethylene release on contacting with plant tissue” value in series [1] (complex with cyclodextrin) was “long-lasting process”.

For the compound `COP(=S)(OC)Oc1ccc([N+](=O)[O-])cc1` [Methyl-parathion, 0,0-dimethyl-0-4-nitrophenyl-phosphorothioate], the “stability against light and oxygen” value in series [2] (cyclodextrin complexes) is “increase the stability against light and oxygen to a considerable extent”.

For the compound `COCC1CC(=O)N(c2cc(Cl)cc(Cl)c2)C1=O` (stereo not shown) [Metomeclan, 1-(3,5-dichlorophenyl)-3-methoxymethyl-pyrrolidine-2,5-dione], the solubility in water result in series [3] is “insoluble in water”. Also, the “activity on addition of cyclodextrin (in words)” value in the series on test fungi was “significantly increased”.

With `OC(c1ccc(Cl)cc1)(c1cncnc1)c1ccccc1Cl` (stereo not drawn) [Phenarimol, 2,4'-dichloro-α-(pyrimidine-5-yl)--diphenyl-methanol], the Inhibition activity % in the series on wheat powdery mildew (phenarimol concentration 0.625 μg/ml) is reported as 29.4%; with wheat powdery mildew (phenarimol concentration 1.25 μg/ml) it was 73.5%; with wheat powdery mildew (phenarimol concentration 2.5 μg/ml), 87.2%; in the series on wheat powdery mildew (phenarimol concentration 5 μg/ml) it was 99.4%; in the series on wheat powdery mildew (phenarimol concentration 10 μg/ml), 100.0%.

Turning to `CCCCNC(=O)n1c(NC(=O)OC)nc2ccccc21` [benomyl, 1-butylcarbamoyl-benzimidazole-2-methyl-carbamate], in series [3] (to methyl-benzimidazole carbamate), the “decomposition when dissolved in water” value was “rapidly decomposes”. Also, in series [3], the solubility in water result was “poorly soluble in water”. In addition, the “Amount of dissolved benomyl, %” value in series [4] (setting [6]) is listed as 0.2%; in series [4] (setting [7]), 0.07%; in series [4] (setting [8]) it was 0.3%; in series [4] (setting [9]) it was 0.08%; in series [4] (setting [10]) it was 0.45%; in series [4] (setting [11]), 0.12%. The “Amount of dissolved benomyl, %” value in series [4] (setting [12]) stood at 0.5%; in series [4] (setting [13]), 0.16%; in series [4] (setting [14]), 0.5%; in series [4] (setting [15]), 0.19%. Besides, the solubility thermodynamic at 10 min was 2 µg/mL in series [4] (setting [6]); 3.5 µg/mL in series [4] (setting [7]); 2 µg/mL (≈ 6.89 µM) in series [5] (10 minutes, shaking in water at 25° C., read-out: Dissolved benomyl). Besides, the solubility thermodynamic at 20 min turned out to be 3 µg/mL in series [4] (setting [8]); 4 µg/mL in series [4] (setting [9]); 5 µg/mL (≈ 17.2 µM) in series [5] (20 minutes, shaking in water at 25° C., read-out: Dissolved benomyl). For the same compound, the solubility thermodynamic at 40 min in series [4] (setting [10]) came to 4.5 µg/mL; in series [4] (setting [11]), 6 µg/mL; in series [5] (40 minutes, shaking in water at 25° C., read-out: Dissolved benomyl), 6 µg/mL (≈ 20.7 µM). Besides, the solubility thermodynamic at 80 min was 5 µg/mL in series [4] (setting [12]); 8 µg/mL in series [4] (setting [13]); 7 µg/mL (≈ 24.1 µM) in series [5] (80 minutes, shaking in water at 25° C., read-out: Dissolved benomyl). For the same compound, the solubility thermodynamic at 2 h was determined as 5 µg/mL in series [4] (setting [14]); 9.5 µg/mL in series [4] (setting [15]); 8 µg/mL (≈ 27.6 µM) in series [5] (120 minutes, shaking in water at 25° C., read-out: Dissolved benomyl). Besides, the solubility thermodynamic at 160 min in series [5] (160 minutes, shaking in water at 25° C., read-out: Dissolved benomyl) turned out to be 9 µg/mL (≈ 31 µM). The “further increase of the solubility caused by cyclodextrin” value in series [5] (on addition of cyclodextrin, water 25° C.) is 1.5-2 -fold.

With `CCN(CC)C(=O)SCc1ccc(Cl)cc1` [bentiocarb, S-4-chlorobenzyl-diethylthio carbamate], the “volatility of the active ingredient” value in series [2] is given as “significantly decreased”. The “duration of pesticide activity” value in series [1] was “remains sufficient for a longer period of time”.

As to `N#Cc1c(Cl)cccc1Cl` [dichlobenyl, 2,6-dichloro-benzonitrile], the sublimation entry in series [2] (uncomplexed, inhibited by forming complex with cyclodextrin) was “easily sublimates”.

Turning to `COP(=O)(OC)OC=C(Cl)Cl` [dichlorphos, 2,2--dichlorovinyl-dimethyl-phosphate], the “volatility of the active ingredient” value in series [2] is recorded as “significantly decreased”. Moreover, in series [1], the “duration of pesticide activity” value is “remains sufficient for a longer period of time”.

Consider `COC(=O)Nc1nc2ccccc2[nH]1` [methyl-benzimidazole carbamate, 2-carbomethoxyamino-benzimidazole], for which the solubility in water result in series [3] is “still less soluble in water”.

As to `CCSC(=O)N1CCCCCC1` [molinate, S-ethyl-N,N-hexamethylene-thiocarbamate], the “volatility of the active ingredient” value in series [2] is on record as “significantly decreased”. Besides, the “duration of pesticide activity” value in series [1] was “remains sufficient for a longer period of time”.
